Measured values taken from ChEMBL document CHEMBL1150510 (Bioorg Med Chem Lett, 1997).

What was measured:
[1] = molecular target: T1, Adrenergic receptor alpha-2 (Homo sapiens, UniProt P08913+P18825+P18089); test: In vitro binding affinity of compound against neuronal alpha-2 adrenergic receptor; type: protein assay
T1 sequence (P08913 whole entry): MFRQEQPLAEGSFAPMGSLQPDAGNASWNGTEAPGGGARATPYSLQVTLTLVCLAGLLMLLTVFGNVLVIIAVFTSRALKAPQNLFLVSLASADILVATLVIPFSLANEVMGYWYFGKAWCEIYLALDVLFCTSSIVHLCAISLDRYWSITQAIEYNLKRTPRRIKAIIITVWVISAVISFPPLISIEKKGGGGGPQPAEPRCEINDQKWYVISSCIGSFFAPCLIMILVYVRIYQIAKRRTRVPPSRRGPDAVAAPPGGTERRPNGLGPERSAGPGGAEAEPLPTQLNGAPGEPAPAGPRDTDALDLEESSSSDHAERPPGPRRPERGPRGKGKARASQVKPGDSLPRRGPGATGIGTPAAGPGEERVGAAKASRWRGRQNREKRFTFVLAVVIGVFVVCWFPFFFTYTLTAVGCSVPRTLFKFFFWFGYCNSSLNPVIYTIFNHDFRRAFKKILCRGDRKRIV
T1 sequence (P18825 whole entry): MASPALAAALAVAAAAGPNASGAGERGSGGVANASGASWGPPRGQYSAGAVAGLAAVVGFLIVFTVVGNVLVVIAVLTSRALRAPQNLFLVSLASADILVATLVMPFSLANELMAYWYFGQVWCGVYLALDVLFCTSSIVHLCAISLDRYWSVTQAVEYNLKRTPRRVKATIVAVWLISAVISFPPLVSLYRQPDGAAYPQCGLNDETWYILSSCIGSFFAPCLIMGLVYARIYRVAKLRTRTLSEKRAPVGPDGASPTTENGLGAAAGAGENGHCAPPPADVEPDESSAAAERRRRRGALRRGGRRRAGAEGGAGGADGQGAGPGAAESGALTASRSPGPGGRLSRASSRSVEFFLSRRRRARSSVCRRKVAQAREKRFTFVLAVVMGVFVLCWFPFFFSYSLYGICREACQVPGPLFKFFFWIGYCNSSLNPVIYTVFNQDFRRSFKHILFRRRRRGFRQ
T1 sequence (P18089 whole entry): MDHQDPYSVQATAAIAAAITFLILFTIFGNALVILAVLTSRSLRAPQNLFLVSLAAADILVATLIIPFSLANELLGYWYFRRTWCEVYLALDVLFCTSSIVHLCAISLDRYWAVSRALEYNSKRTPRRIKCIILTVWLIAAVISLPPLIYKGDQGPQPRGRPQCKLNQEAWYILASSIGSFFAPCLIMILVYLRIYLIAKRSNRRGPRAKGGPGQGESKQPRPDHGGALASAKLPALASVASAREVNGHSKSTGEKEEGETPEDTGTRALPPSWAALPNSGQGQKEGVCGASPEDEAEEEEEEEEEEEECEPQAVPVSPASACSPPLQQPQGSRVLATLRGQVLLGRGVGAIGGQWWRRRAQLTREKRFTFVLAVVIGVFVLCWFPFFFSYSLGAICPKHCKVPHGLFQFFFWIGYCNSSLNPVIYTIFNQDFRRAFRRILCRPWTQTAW

[2] = molecular target: Adrenergic receptor beta (Homo sapiens, UniProt P08588+P07550+P13945); test: In vitro binding affinity of compound against neuronal Beta adrenergic receptor; type: protein assay
[3] = molecular target: D(2) dopamine receptor (Homo sapiens, UniProt P14416); test: In vitro binding affinity of compound against neuronal Dopamine receptor D2
[4] = system: Mus musculus; test: In vivo minimum effective dose of compound to block the apomorphine-induced climbing behavior in mice after subcutaneous administration; type: functional
[5] = molecular target: Serotonin 2 (5-HT2) receptor (Homo sapiens, UniProt P41595+P28223+P28335); test: In vitro binding affinity of compound against neuronal 5-hydroxytryptamine 2 receptor; type: protein assay
[6] = molecular target: GABA-A receptor; anion channel; test: In vitro binding affinity for neuronal GABA-A benzodiazepine receptor; type: protein-complex assay
[7] = system: Mus musculus; test: In vivo minimum effective dose of compound to block the apomorphine-induced climbing behavior in mice after intravenous administration; type: functional
[8] = molecular target: D(1A) dopamine receptor (Homo sapiens, UniProt P21728); test: In vitro binding affinity of compound against dopamine neuronal Dopamine receptor D1
[9] = system: Rattus norvegicus; test: In vivo minimum effective dose of compound to block the conditioned avoidance behavior in rats after intravenous administration; type: functional
[10] = system: Rattus norvegicus; test: In vivo minimum effective dose of compound to block the conditioned avoidance behavior in rats after peroral administration; type: functional
[11] = molecular target: Muscarinic acetylcholine receptor; test: In vitro binding affinity of compound against muscarinic neuronal receptor; type: protein assay
[12] = molecular target: GABA-A receptor; anion channel; test: In vitro binding affinity for neuronal GABA-A receptor; type: protein-complex assay
[13] = molecular target: T2, Adrenergic receptor alpha-1 (Homo sapiens, UniProt P35348+P25100+P35368); test: In vitro binding affinity of compound against Alpha-1 adrenergic receptor; type: protein assay
T2 sequence (P35348 whole entry): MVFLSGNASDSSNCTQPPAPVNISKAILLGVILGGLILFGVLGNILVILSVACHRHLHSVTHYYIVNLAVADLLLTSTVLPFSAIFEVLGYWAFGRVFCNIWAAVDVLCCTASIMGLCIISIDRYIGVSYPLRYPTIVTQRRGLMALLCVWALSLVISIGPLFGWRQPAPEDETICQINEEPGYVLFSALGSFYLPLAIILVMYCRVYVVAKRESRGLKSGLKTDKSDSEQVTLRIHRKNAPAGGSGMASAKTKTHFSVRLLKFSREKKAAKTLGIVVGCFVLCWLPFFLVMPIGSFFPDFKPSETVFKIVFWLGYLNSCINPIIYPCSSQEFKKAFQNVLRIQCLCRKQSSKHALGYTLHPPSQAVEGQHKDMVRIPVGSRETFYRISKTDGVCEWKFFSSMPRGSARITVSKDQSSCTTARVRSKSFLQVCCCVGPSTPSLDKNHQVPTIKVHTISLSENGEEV
T2 sequence (P25100 whole entry): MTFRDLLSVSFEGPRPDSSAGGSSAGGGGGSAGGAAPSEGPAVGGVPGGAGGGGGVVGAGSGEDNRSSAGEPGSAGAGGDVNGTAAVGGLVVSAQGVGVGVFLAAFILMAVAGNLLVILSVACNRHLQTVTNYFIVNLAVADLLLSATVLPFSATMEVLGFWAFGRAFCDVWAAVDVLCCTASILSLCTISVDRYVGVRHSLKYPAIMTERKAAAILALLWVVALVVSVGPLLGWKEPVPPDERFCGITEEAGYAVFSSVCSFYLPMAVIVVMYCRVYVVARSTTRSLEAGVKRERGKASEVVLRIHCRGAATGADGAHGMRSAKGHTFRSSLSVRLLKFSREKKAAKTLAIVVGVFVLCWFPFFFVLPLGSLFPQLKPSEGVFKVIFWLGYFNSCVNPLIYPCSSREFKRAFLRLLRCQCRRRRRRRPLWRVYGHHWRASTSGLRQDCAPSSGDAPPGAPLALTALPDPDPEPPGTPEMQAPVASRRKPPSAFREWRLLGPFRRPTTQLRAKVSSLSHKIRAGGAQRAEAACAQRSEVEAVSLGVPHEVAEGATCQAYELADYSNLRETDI
T2 sequence (P35368 whole entry): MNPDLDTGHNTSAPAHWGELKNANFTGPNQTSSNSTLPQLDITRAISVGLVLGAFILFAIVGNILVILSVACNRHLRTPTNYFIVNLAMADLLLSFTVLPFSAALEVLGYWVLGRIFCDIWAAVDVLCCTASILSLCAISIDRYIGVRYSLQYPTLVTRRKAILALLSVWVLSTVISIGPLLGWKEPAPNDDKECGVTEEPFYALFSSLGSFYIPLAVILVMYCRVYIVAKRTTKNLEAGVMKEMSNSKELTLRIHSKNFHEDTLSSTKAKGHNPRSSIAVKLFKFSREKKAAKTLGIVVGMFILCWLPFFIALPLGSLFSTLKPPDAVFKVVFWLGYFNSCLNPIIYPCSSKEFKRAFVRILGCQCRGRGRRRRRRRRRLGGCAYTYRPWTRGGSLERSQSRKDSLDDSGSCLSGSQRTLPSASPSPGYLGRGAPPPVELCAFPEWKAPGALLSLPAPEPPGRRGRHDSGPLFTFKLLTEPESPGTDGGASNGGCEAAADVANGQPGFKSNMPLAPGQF

[14] = molecular target: Histamine H1 receptor (Homo sapiens, UniProt P35367); test: In vitro binding affinity of compound against histamine H1 neuronal receptor
[15] = system: Mus musculus; test: In vivo minimum effective dose of compound to block the apomorphine-induced climbing behavior in mice after peroral administration; type: functional

Chain of D(1A) dopamine receptor (P21728 whole entry): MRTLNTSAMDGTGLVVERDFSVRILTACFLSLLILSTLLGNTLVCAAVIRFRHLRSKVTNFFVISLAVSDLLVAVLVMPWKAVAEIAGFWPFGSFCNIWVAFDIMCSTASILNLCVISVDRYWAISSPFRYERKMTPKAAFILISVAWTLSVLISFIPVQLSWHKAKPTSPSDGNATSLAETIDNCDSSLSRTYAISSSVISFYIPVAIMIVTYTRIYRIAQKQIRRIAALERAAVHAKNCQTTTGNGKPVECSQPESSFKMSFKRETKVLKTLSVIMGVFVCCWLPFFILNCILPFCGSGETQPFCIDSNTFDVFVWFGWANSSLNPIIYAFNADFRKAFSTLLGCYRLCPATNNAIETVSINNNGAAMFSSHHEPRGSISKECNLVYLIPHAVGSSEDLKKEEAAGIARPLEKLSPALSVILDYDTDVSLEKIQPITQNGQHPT
Chain of Histamine H1 receptor (P35367 whole entry): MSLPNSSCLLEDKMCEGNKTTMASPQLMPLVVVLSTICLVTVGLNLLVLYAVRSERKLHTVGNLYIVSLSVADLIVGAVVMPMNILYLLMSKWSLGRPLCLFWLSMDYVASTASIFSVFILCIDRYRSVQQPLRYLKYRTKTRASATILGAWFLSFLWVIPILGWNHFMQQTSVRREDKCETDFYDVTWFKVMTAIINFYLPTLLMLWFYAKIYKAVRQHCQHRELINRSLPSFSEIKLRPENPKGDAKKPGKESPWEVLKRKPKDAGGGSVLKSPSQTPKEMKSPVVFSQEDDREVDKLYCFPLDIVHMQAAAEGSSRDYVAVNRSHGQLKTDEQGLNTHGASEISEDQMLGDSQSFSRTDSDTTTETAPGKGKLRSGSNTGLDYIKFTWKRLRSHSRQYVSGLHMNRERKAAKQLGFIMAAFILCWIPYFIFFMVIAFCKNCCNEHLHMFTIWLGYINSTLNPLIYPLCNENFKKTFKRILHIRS
Chain of D(2) dopamine receptor (P14416 whole entry): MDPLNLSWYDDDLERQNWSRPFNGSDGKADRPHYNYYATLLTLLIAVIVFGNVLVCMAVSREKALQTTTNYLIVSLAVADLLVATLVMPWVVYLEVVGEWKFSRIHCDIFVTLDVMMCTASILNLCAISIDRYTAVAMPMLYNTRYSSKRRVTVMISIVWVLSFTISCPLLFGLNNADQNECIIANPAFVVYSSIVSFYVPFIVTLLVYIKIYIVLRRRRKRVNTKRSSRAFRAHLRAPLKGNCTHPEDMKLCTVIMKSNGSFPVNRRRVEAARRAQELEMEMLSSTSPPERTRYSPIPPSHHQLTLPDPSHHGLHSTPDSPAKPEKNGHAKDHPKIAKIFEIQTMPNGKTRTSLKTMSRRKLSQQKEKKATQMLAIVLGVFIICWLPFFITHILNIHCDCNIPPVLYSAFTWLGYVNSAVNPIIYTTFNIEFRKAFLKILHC

| Ki [1] [nM] | Ki [2] [nM] | Ki [3] [nM] | Ki [5] [nM] | Ki [6] [nM] | Ki [8] [nM] | Ki [11] [nM] | Ki [12] [nM] | Ki [13] [nM] | Ki [14] [nM] | SMILES | EDmin [4] [mg/kg] | EDmin [7] [mg/kg] | EDmin [9] [mg/kg] | EDmin [10] [mg/kg] | EDmin [15] [mg/kg] |
| --- | --- | --- | --- | --- | --- | --- | --- | --- | --- | --- | --- | --- | --- | --- | --- |
| 1000 | > 10000 | 9 | 23 | > 10000 | 203 | 333 | > 10000 | 80 | 22 | Cc1cc2c(s1)Nc1ccccc1N=C2N1CCNCC1 [DESMETHYLOLANZAPINE] | 50 | >10 | >4 | >25 | – |
| > 10000 | > 10000 | 119 | 112 | > 10000 | 395 | 662 | > 10000 | 266 | 87 | Cc1cc2c(s1)Nc1ccccc1N=C2N1CC[N+](C)([O-])CC1 | 12.5 | >10 | >4 | >25 | – |
| 783 | > 10000 | 22 | 18 | > 1000 | 66 | 501 | > 10000 | 12 | 6 | CN1CCN(C2=Nc3ccccc3Nc3sc(CO)cc32)CC1 | – | – | – | – | 20 |

| SMILES | Ki [1] [nM] | Ki [2] [nM] | Ki [3] [nM] | Ki [5] [nM] | Ki [6] [nM] | Ki [8] [nM] | Ki [11] [nM] | Ki [12] [nM] | Ki [13] [nM] | Ki [14] [nM] | EDmin [4] [mg/kg] | EDmin [7] [mg/kg] | EDmin [9] [mg/kg] | EDmin [10] [mg/kg] | EDmin [15] [mg/kg] |
| --- | --- | --- | --- | --- | --- | --- | --- | --- | --- | --- | --- | --- | --- | --- | --- |
| Cc1cc2c(s1)Nc1ccccc1N=C2N1CCN(C)CC1 [OLANZAPINE] | – | – | – | – | > 10000 | – | – | > 10000 | – | – | 0.625 | 1 | 0.25 | 2.5 | 2.5 |
